{"source": "patent EP1860434A1", "about": "“Method for analysing substance mixtures” (Shimadzu Europa GmbH, priority 2006, dated 2007)", "origin": "cited, not measured here", "data": [{"conditions": "listed for the six substances of the Performance Test Probe; no measurement described", "values": [{"compound": "2-Ethyliden-1.5-dimethyl-3.3-diphenyl-pyrrolidin", "pKa-Wert": 9.6}, {"compound": "CC(N)Cc1ccc2c(c1)OCO2", "note": "(stereo not drawn) [Methylendioxyamphetamin (MDA), Methylendioxyamphetamin]", "pKa-Wert": 9.7}, {"compound": "CN(C)C(=O)Oc1cccc([N+](C)(C)C)c1", "note": "[Neostigminbromid]", "pKa-Wert": 12}]}]}
